Experimental data published in ChEMBL document CHEMBL1201862, “PubChem BioAssay data set” (2004).
Active and inactive are the calls of the source. No stated cut-off is given here; in the data, actives have a measured IC50 and inactives only a lower limit.

Molecular target: Envelope glycoprotein gp160 (Human immunodeficiency virus 1, UniProt Q6QLK5)
Test: cell-free HIV fusion peptide-binding blockers – biochemical, uHTS, fluorescence dequenching, […] (AID 1986)

Chain of Envelope glycoprotein gp160 (Q6QLK5 whole entry, the tested form may be a part): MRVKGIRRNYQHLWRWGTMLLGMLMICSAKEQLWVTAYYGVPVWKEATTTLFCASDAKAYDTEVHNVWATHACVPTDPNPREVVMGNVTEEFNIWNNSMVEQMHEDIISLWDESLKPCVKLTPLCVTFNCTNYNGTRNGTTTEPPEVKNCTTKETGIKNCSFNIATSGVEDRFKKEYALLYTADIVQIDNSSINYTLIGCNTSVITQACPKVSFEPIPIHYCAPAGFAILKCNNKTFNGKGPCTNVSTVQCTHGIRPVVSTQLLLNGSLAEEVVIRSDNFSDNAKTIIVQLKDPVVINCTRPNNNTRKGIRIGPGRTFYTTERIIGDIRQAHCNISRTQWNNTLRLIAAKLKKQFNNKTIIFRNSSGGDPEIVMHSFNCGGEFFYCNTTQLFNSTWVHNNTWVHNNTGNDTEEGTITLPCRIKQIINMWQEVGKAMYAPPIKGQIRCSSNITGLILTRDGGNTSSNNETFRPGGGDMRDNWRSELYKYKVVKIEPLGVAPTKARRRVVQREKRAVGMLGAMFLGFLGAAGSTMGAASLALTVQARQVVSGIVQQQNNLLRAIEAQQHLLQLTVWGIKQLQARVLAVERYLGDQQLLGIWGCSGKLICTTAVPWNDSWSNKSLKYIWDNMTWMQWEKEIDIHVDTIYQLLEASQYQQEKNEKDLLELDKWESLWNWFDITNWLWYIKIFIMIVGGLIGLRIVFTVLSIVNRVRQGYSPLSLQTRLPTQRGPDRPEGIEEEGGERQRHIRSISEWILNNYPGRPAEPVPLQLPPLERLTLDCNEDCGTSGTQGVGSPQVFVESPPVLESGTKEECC

CCOC(=O)C1=C(C)N=c2s/c(=C\c3ccc(OCC(=O)O)cc3)c(=O)n2C1c1ccc(Cl)cc1 (centres undefined)
IC50: 13.8 µM (active)

CC(=O)Nc1sc(/C(C#N)=C/c2ccc(Cl)c(Cl)c2)nc1-c1ccc(C)cc1
IC50: 2.04 µM (active)

O=C(O)c1ccc(N2C(=O)/C(=C/c3ccc(-c4ccc([N+](=O)[O-])cc4)o3)C=C2c2ccccc2)cc1
IC50: 9.9 µM (active)

COc1cc([N+](=O)[O-])cc(/C=C2/SC(=S)N(Cc3ccccc3)C2=O)c1O
IC50: 32.6 µM (active)
